{"source": "patent US20150190360A1", "about": "“METHODS OF ADMINISTERING MONOMETHYL FUMARATE” (XenoPort, Inc., priority 2013, published 2015)", "key": {"[1]": {"test_system": "imiquimod (IMQ) mouse model of psoriasis", "format": "in vivo, Balb/c mice", "experimental": "In the imiquimod (IMQ) mouse model of psoriasis. Balb/c mice (10 males/group) received daily topical IMQ (5% cream) on shaved back and right ear for 5 days. Animals received oral active drug (90 mg-eq MMF/kg twice daily) or vehicle from Day −5 to Day 5. Erythema score was the primary outcome measure. […] The AUCmolar-MMF-GA:AUCmolar-MMF Ratio (%) in mice dosed with active drug at 90 mg/kg was 23.6%."}, "[2]": {"test_system": "MOG35-55 mouse EAE model of MS"}}, "data": [{"smiles": "CCN(CC)C(=O)COC(=O)/C=C/C(=O)OC", "note": "[Active drug, (N,N-diethylcarbamoyl)methyl methyl (2E)but-2-ene-1,4-dioate]", "values": [{"measurement": "AUCmolar-MMF-GA:AUCmolar-MMF Ratio", "setting": "[1]; male, Balb/c, mouse, in vivo, 90 mg/kg", "value": 23.6, "unit": "%"}, {"measurement": "Erythema score versus control", "setting": "[1]; oral 90 mg-eq MMF/kg twice daily from Day -5 to Day 5, Balb/c mice, topical IMQ 5% cream", "value": "significant reduction"}, {"measurement": "AUCmolar-MMF-GA:AUCmolar-MMF Ratio", "setting": "[2]; female, C57BL/6, mouse, in vivo, 90 mg/kg", "value": 23.6, "unit": "%"}, {"measurement": "EAE clinical score (Day 29 and overall AUC) compared to vehicle", "setting": "[2]; oral 90 mg-eq MMF/kg twice daily on Days 3 to 29, C57BL/6 mice, 5 point scale", "value": "significant reduction"}]}]}
